Results published in patent EP0316212B1 (priority 1987, dated 1989).
Like-named read-outs stand apart in the source and are kept apart here.

Columns and labels:
Cellules de rate = assay: Proliferation of mouse spleen cells (3H-thymidine incorporation); assay type: cell-based, souris; settings: for inhibition at 200 µg/mL: read-out: pourcentage d'augmentation (+) ou d'inhibition (-) de la prolifération
From the text: (§1) Les anticorps utilisés sont des anticorps monoclonaux (AM) naturels (N5-12, N5-17, MO-1, 62-1, D-23) et proviennent d'hybridomes préparés par fusion des cellules de rate de souris n'ayant reçu aucune immunisation au préalable ni aucune stimulation mitogénique, avec le myélome de souris X63-Ag8. Les hybridomes TNP11 et TNP9 proviennent de fusion des cellules de rate de souris immunisées avec du Ficoll-TNP. Ils ont été maintenus en culture dans le milieu RPMI complet contenant 10% de sérum de veau foetal. Les hybridomes ont été injectés à des souris Balb/c préalablement traitées au pristane dans le but d'obtenir des ascites. Les AM ont été utilisés en tant que surnageants de culture ou en tant qu'ascites ou après isolement par chromatographie d'affinité sur une colonne de DNP-Sépharose. Ces anticorps ont été testés par test immunoenzymatique sur différents antigènes immobilisés sur des plaques de polystyrène et révélés par un anticorps anti-Ig de souris couplé à la β-galactosidase.
(§2) Le TNP a été couplé à la sérumalbumine bovine (BSA) par la méthode de Little & Eisen : 1ml de BSA à 20mg/ml dans le tampon carbonate-bicarbonate, 0,1M, pH 9,5, est ajouté à 1ml d'une solution d'acide trinitrobenzène sulfonique à 2 mg/ml dans le même tampon. La réaction est arrêtée après 30 à 120 minutes selon la substitution voulue par élimination de l'excès de réactifs sur échangeur d'ions (Dowex 1 x 4) puis dialyse. Des préparations de BSA substituée avec soit 14 ou 30 molécules de TNP par molécule de BSA (TNP₁₄-BSA ou TNP₃₀-BSA) ont été utilisées.
(§3) Le DNP-Glycine (DNP-Gly) et le DNP-Lysine (DNP-Lys) proviennent des Laboratoires Sigma et sont solubilisés directement dans le milieu de culture.
(§4) Les cellules proviennent de rate ou de thymus de souris. Les souris sont tuées par dislocation cervicale et leur rate ou leur thymus prélevé stérilement sont déposés dans du milieu RPMI. Les cellules sont dissociées, lavées une fois avec du milieu puis les globules rouges sont lysés au chlorure d'ammonium (0,9%) pendant 1 minute à froid puis les cellules sont relavées dans le milieu complet.
(§5) Le milieu de culture utilisé est du RPMI 1640 contenant du sérum de veau foetal (5%), du pyruvate de sodium (1mM), de la L-glutamine (1mM), du 2-mercaptoethanol (0,05 mM), de la pénicilline (100»g/ml) et de la streptomycine (50»g/ml).
(§6) 2x10⁵ cellules de chaque population cellulaire ou 4x10⁵ de cellules de rate non fractionnées sont distribuées sous un volume final de 200»l dans des boîtes de culture de 96 puits à fond plat en présence ou non des différents stimulateurs (ou mitogènes)(40»g/ml de lipopolysaccharide W Salmonella typhosa 2»g/ml de concanavaline A, ou des surnageants de culture contenant les anticorps monoclonaux à différentes dilutions ou une solution de TNP-BSA à des concentrations finales allant de 200ng à 200»g/ml). Les cultures sont effectuées pendant 48 à 96 heures à 37°C dans une atmosphère de 5% de CO2.
Six à huit heures avant la fin de la culture, 100»l de surnageant sont prélevés de chaque puits de culture afin d'être testés quant à leur contenu en anticorps. 10»l d'une solution de ³H-thymidine (activité spécifique = […]) à 50 »Ci/ml sont ajoutés à la culture qui est ensuite poursuivie. Les cellules de chaque puits sont collectées sur du papier filtre à l'aide d'un collecteur automatique et, après sèchage, les filtres sont comptés dans un liquide scintillant.

Cellules T = assay: Proliferation of mouse T cells (3H-thymidine incorporation); assay type: cell-based, souris; settings: for inhibition at 200 µg/mL: T-cell, read-out: pourcentage d'augmentation (+) ou d'inhibition (-) de la prolifération
From the text: as §1, §2, §3, §4
Les sous-populations de cellules B ou T sont ensuite séparées comme suit : • Sous-population T : les cellules T sont obtenues à partir de la population de cellules de la rate par élimination des cellules portant des Ig à leur surface (sous-population B) sur des anticorps anti-Ig de souris immobilisés soit sur des billes magnétiques (Magnogel)® soit sur des boites de Pétri. • Sous-population B : les cellules B sont obtenues après détachement mécanique des supports dur lesquels elles étaient fixées par l'intermédiaire des anticorps anti-Ig (après l'isolement des cellules T), ou après élimination de la sous-population des cellules T de la population totale des cellules de rate par un traitement avec un anticorps anti-cellules T suivi de complément de cobaye. • Thymocytes : les thymocytes sont dissociés dans le RPMI et les cellules isolées sont lavées dans le milieu complet avant d'être mises en culture.
as §5, §6
Six à huit heures avant la fin de la culture, 100»l de surnageant sont prélevés de chaque puits de culture afin d'être testés quant à leur contenu en anticorps. […]

[1] = test system: virus de la chorioméningite lymphocytaire (CML); assay: organism not typed; assay type: cell-based; settings: for % Inhibition: préincubés avec les cellules L929
[2] = test system: virus de la chorioméningite lymphocytaire (CML); assay: organism not typed; assay type: cell-based; settings: for % Inhibition: ajoutés après l'infection virale
[3] = test system: HVE (Herpes Virus Eidolon); assay: Plaque method, neutralisation of HVE by coupled NP (TCC31 cells); assay type: cell-based
From the text: L'effet des NP couplés (TNP-BSA, DNP-Glycine) a été évalué par la méthode des plages, comme pour le virus de la chorioméningite lymphocytaire dans l'exemple I. L'effet neutralisant des NP couplés a été évalué sur les virus enveloppés ou non enveloppés suivants :
C'est un virus de l'herpès à double brin d'ADN que l'on cultive sur des cellules TCC31 de souris. Les résultats sont observés après 2 Jours de culture.
Pour tous les virus testés, les dilutions des virus donnaient 50 plages/cupule.

[4] = 200µg/ml, LPS* (mitogène ajouté après 48 heures avec le dérivé NP)
[5] = 200µg/ml, conA* (mitogène ajouté après 48 heures avec le dérivé NP)
[6] = 12 (µg/ml), LPS* (mitogène ajouté après 48 heures)
[7] = 12 (µg/ml), conA* (mitogène ajouté après 48 heures)
[8] = 50 (µg/ml), LPS* (mitogène ajouté après 48 heures)
[9] = 50 (µg/ml), conA* (mitogène ajouté après 48 heures)
[10] = 0,7 (µg/ml), conA* (mitogène ajouté après 48 heures)
[11] = 200µg/ml, conA* (mitogène ajouté après 48 heures)
[12] = 3 (µg/ml), conA* (mitogène ajouté après 48 heures)

TNP-BSA
pourcentage d'augmentation (+) ou d'inhibition (-) de la prolifération (Cellules de rate; [4]): +30%
pourcentage d'augmentation (+) ou d'inhibition (-) de la prolifération (Cellules de rate; 200µg/ml, M (milieu seul)): +50%
pourcentage d'augmentation (+) ou d'inhibition (-) de la prolifération (Cellules de rate; [5]): +46%
pourcentage d'augmentation (+) ou d'inhibition (-) de la prolifération (Cellules de rate; [6]): 0%
pourcentage d'augmentation (+) ou d'inhibition (-) de la prolifération (Cellules de rate; 12 (µg/ml), M (milieu seul)): +10%
pourcentage d'augmentation (+) ou d'inhibition (-) de la prolifération (Cellules de rate; [7]): +28%
pourcentage d'augmentation (+) ou d'inhibition (-) de la prolifération (Cellules de rate; [8]): +20%
pourcentage d'augmentation (+) ou d'inhibition (-) de la prolifération (Cellules de rate; 50 (µg/ml), M (milieu seul)): +30%
pourcentage d'augmentation (+) ou d'inhibition (-) de la prolifération (Cellules de rate; [9]): +30%
pourcentage d'augmentation (+) ou d'inhibition (-) de la prolifération (Cellules T; 0,7 (µg/ml), M (milieu seul)): 0%
pourcentage d'augmentation (+) ou d'inhibition (-) de la prolifération (Cellules T; [10]): -50%
pourcentage d'augmentation (+) ou d'inhibition (-) de la prolifération (Cellules T; 200µg/ml, M (milieu seul)): +30%
pourcentage d'augmentation (+) ou d'inhibition (-) de la prolifération (Cellules T; [11]): -50%
pourcentage d'augmentation (+) ou d'inhibition (-) de la prolifération (Cellules T; 3 (µg/ml), M (milieu seul)): 0%
pourcentage d'augmentation (+) ou d'inhibition (-) de la prolifération (Cellules T; [12]): -40%
pourcentage d'augmentation (+) ou d'inhibition (-) de la prolifération (Cellules T; 12 (µg/ml), M (milieu seul)): +20%
pourcentage d'augmentation (+) ou d'inhibition (-) de la prolifération (Cellules T; [7]): -20%
pourcentage d'augmentation (+) ou d'inhibition (-) de la prolifération (Cellules T; 50 (µg/ml), M (milieu seul)): +18%
pourcentage d'augmentation (+) ou d'inhibition (-) de la prolifération (Cellules T; [9]): -25%
% Inhibition ([1]; 0.12 mg/ml): 0%
% Inhibition ([1]; 0.25 mg/ml): 22%
% Inhibition ([1]; 0.5 mg/ml): 48%
% Inhibition ([1]; 1 mg/ml): 63%
% Inhibition ([2]; 0.5 mg/ml): 0%
% Inhibition ([2]; 1mg/ml): 17%
% Inhibition ([3]; 0,03 mg/ml): 0%
% Inhibition ([3]; 0,5 mg/ml): 55%
% Inhibition ([3]; 0,06 mg/ml): 5%
% Inhibition ([3]; 0,12 mg/ml): 16%
% Inhibition ([3]; 0,25 mg/ml): 35%
% Inhibition ([3]; 1,0 mg/ml): 79%

O=C(O)CNc1ccc([N+](=O)[O-])cc1[N+](=O)[O-] [DNP-glycine, DNP-Glycine]
inhibition at 200 µg/mL (Cellules de rate; [4]): -60%
inhibition at 200 µg/mL (Cellules de rate; 200µg/ml, M (milieu seul)): -64%
inhibition at 200 µg/mL (Cellules de rate; [5]): -50%
pourcentage d'augmentation (+) ou d'inhibition (-) de la prolifération (Cellules de rate; [6]): 0%
pourcentage d'augmentation (+) ou d'inhibition (-) de la prolifération (Cellules de rate; 12 (µg/ml), M (milieu seul)): -10%
pourcentage d'augmentation (+) ou d'inhibition (-) de la prolifération (Cellules de rate; [7]): -30%
pourcentage d'augmentation (+) ou d'inhibition (-) de la prolifération (Cellules de rate; [8]): -20%
pourcentage d'augmentation (+) ou d'inhibition (-) de la prolifération (Cellules de rate; 50 (µg/ml), M (milieu seul)): -30%
pourcentage d'augmentation (+) ou d'inhibition (-) de la prolifération (Cellules de rate; [9]): 0%
pourcentage d'augmentation (+) ou d'inhibition (-) de la prolifération (Cellules T; 0,7 (µg/ml), M (milieu seul)): +50%
pourcentage d'augmentation (+) ou d'inhibition (-) de la prolifération (Cellules T; [10]): 0%
pourcentage d'augmentation (+) ou d'inhibition (-) de la prolifération (Cellules T; 3 (µg/ml), M (milieu seul)): 0%
pourcentage d'augmentation (+) ou d'inhibition (-) de la prolifération (Cellules T; [12]): -5%
pourcentage d'augmentation (+) ou d'inhibition (-) de la prolifération (Cellules T; 12 (µg/ml), M (milieu seul)): 0%
pourcentage d'augmentation (+) ou d'inhibition (-) de la prolifération (Cellules T; [7]): -4%
pourcentage d'augmentation (+) ou d'inhibition (-) de la prolifération (Cellules T; 50 (µg/ml), M (milieu seul)): +30%
pourcentage d'augmentation (+) ou d'inhibition (-) de la prolifération (Cellules T; [9]): -15%
inhibition at 200 µg/mL (Cellules T; 200µg/ml, M (milieu seul)): 4%
inhibition at 200 µg/mL (Cellules T; [11]): -45%
inhibition at 10 µg/mL ([1]; L929): 25%
inhibition at 30 µg/mL ([1]; L929): 80%
inhibition at 60 µg/mL ([1]; L929): 15%
inhibition at 120 µg/mL ([1]; L929): 30%
inhibition at 240 µg/mL ([1]; L929): 25%
inhibition at 480 µg/mL ([1]; L929): 55%
inhibition at 10 µg/mL [2]: 10%
inhibition at 30 µg/mL [2]: 17%
inhibition at 60 µg/mL [2]: 34%
inhibition at 120 µg/mL [2]: 36%
inhibition at 240 µg/mL [2]: 54%
inhibition at 480 µg/mL [2]: 63%
inhibition du virus (result in words) ([2]; ajouté à la culture cellulaire après l'infection virale): peut inhiber le virus même s'il est ajouté à la culture cellulaire après l'infection virale
inhibition at 300 µg/mL ([3]; 0,3 mg/ml): 48%
inhibition at 600 µg/mL ([3]; 0,6 mg/ml): 50%
inhibition at 70 µg/mL ([3]; 0,07 mg/ml): 28%
inhibition at 150 µg/mL ([3]; 0,15 mg/ml): 40%
inhibition at 1200 µg/mL ([3]; 1,2 mg/ml): 57%
inhibition at 2400 µg/mL ([3]; 2,4 mg/ml): 92%
minimal effective concentration ([3]; 48 h, lowest concentration stated as seroneutralising, virus HVE, read-out: peut séroneutraliser le virus jusqu'à une concentration de): 600 µg/mL
